Data taken from patent US11591306B2, “Vitamin E-based amphipathic compound, and use thereof” (Industry-University Cooperation Foundation Hanyang …, priority 2017, dated 2023).

How the values were obtained:
β2AR-Gs complex [1] = target: T1, β2AR-Gs complex (Homo sapiens, UniProt P07550); experiment: β2AR-Gs complex stability by analytical gel filtration (SEC); details: complex purified in VEG-3, 3 and 15-day incubation, compound-free running buffer
T1 construct: made in house
Method: 100 μM β2AR solubilized in 0.1% DDM mixed with 120 μM Gs heterotrimer for 30 minutes at room temperature. 0.5-unit apyrase (NEB) and 2 mM MgCl2 were added to facilitate complex formation, followed by further incubation for one hour. Subsequently, 1.0% VEG-3 was added such that the final concentration reached 0.2%, and the sample was further incubated for 30 minutes to change DDM to VEG-3. The protein solution was loaded into a M1 Flag column, washed with a series of buffers with different molar ratios of 0.1% DDM buffer to 0.5% VEG-3 buffer to completely change DDM to VEG-3, and the receptor-Gs complex was finally eluted with a 0.05% VEG-3 buffer. Preparative gel filtration was performed to purify the β2AR-Gs complex with a running buffer (20 mM HEPES pH 7.5, 100 mM NaCl, 0.005% DTM-A6, 1 mM BI, […]). To measure the stability of the β2AR-Gs complex in VEG-3, analytical gel filtrations were performed using the running buffer as above, but after 3 and 15-day incubation, performed without VEG-3 (compound-free condition).

[2] = target: T2, MelBSt (melibiose permease) (Salmonella typhimurium, UniProt P30878); experiment: MelBSt extraction/solubilization and thermal stability, SDS-PAGE and Western blotting
T2 construct: made in house; host or cells: E. coli DW2 (ΔmelB and ΔlacZY), plasmid pK95ΔAHB/WT MelBSt/CH10
Method: Specifically, Salmonella typhimurium MelBSt (melibiose permease) having a 10 His tag at the C-terminus was expressed in E. coli DW2 cells (ΔmelB and ΔlacZY) using a pK95ΔAHB/WT MelBSt/CH10 plasmid. Cell growth and membrane preparation were carried out according to the methods disclosed in the paper written by A. S. Ethayathulla et al. (Nat. Commun. 2014, 5, 3009). A protein assay was performed using a Micro BCA kit (Thermo Scientific, Rockford, Ill.). MelBSt stability in VEGs or DDM was evaluated using the protocol disclosed in Nat. Methods 2010, 7, 1003-1008, written by P. S. Chae et al. A MelBSt-containing membrane sample (the final protein concentration was 10 mg/mL) was incubated in a solubilization buffer containing 1.5% (w/v) DDM or VEGs (50 mM sodium phosphate, pH 7.5, 200 mM NaCl, 10% glycerol, 20 mM melibiose) at two different temperatures (0 and 23° C.) for 90 minutes. To remove an insoluble material, ultracentrifugation was performed using a Beckman Optima™ MAX ultracentrifuge equipped with a TLA-100 rotor at 355,590 g and 4° C. for 30 minutes. […] The loaded samples were analyzed by SDS-15% PAGE, and then visualized by immunoblotting with a Penta-His-HRP antibody (Qiagen, Germantown, Md.).
To assess the thermal stability of MelBSt in various amphipathic molecules, MelBSt extracted with individual amphipathic molecules at 23° C. was subjected to additional thermal treatment at three different temperature (45, 55 and 65° C.) and ultracentrifugation, followed by SDS-15% PAGE and Western blotting. MelBSt was detected using a SuperSignalWest Pico chemiluminescent substrate by an ImageQuant LAS 4000 Biomolecular Imager (GE Healthcare Life Science).

β2AR = target: T3, β2AR (Homo sapiens, UniProt P07550); experiment: β2AR stability, [3H]-dihydroalprenolol (DHA) ligand binding; details: CMC+0.2 wt %, 10 days at room temperature
T3 construct: made in house; host or cells: Sf9 insect cells, baculovirus
Method: A receptor was expressed in Sf9 insect cells infected with Baculovirus and solubilized in 1% DDM. The DDM-solubilized receptor was purified by alprenolol-sepharose in the presence of 0.01% cholesteryl succinate (CHS). β2AR purified by DDM was diluted with a buffer containing DDM or VEGs (VEG-1, VEG-2, VEG-3 and VEG-5) to reach the final concentration of CMC+0.2 wt %. β2AR solubilized in each compound was stored for 10 days at room temperature, and the ligand binding ability of the receptor was measured at regular intervals by incubating the receptor with 10 nM radioactive [^3H]-dihydroalprenolol (DHA) for 30 minutes at room temperature. The mixture was loaded into a G-50 column, and a supernatant was collected using a certain amount of binding buffer (supplemented with […] pH 7.5, 100 mM NaCl, 0.5 mg/ml BSA). In addition, a 15 ml scintillation fluid was added. Receptor-binding [^3H]-DHA was measured using a scintillation counter (Beckman).

β2AR-Gs complex [3] = target: T1, β2AR-Gs complex; experiment: Negative stain EM analysis of β2AR-Gs complex; details: complex purified by VEG-3
Method: A β2AR-Gs protein complex was prepared for electron microscopy using a conventional negative staining protocol, and imaged at room temperature using a Tecnai T12 electron microscope operated at 120 kV according to a low-dose procedure. Images recorded at a magnification of 71,138× and a defocus value of approximately −1.1 urn on a Gatan US4000 CCD camera. All images were binned (2×2 pixels) to obtain a pixel size of 4.16 Å at a specimen level. Particles were manually […] using e2boxer (part of the EMAN2 software suite). 2D reference-free alignment and classification of particle projections were performed using ISAC. 23,035 projections of β2AR-Gs were subjected to ISAC producing 19 classes consistent in two-way matching and 5401 particle projections.

Cc1c(C)c2c(c(C)c1OCC(=O)NC(CO[C@@H]1OC(CO)[C@@H](O[C@H]3OC(CO)[C@@H](O)[C@H](O)C3O)[C@H](O)C1O)CO[C@@H]1OC(CO)[C@@H](O[C@H]3OC(CO)[C@@H](O)[C@H](O)C3O)[C@H](O)C1O)CCC(C)(CCCC(C)CCCC(C)CCCC(C)C)O2 (some centres unmarked) [VEG-3]
Integrity of the purified β2AR-Gs complex (SEC) (β2AR-Gs complex [1]): continuously maintains its integrity as a complex for 15 days
MelBSt solubilization ability ([2]; 1.5 wt %, extracted at 23° C., then 65° C.): very excellent protein solubilization ability
MelBSt transporter solubilization ability in the thermal stability experiment ([2]; elevated temperatures (overall)): higher transporter solubilization ability than DDM
Long-term β2AR activity ([3H]-DHA binding) (β2AR): consistently maintained during incubation for 10 days
Homogeneity of β2AR-Gs complex particles (negative stain EM) (β2AR-Gs complex [3]): highly homogeneous
